Test results published in patent publication US8815878B1, “Spiro hemiaminals for treating viral diseases” (NovaDrug, LLC, priority 2010, dated 2014).

Tested on: Huh7-1 cells
Assay: HCV Induced Cytotoxicity Test (Promega CytoTox 96 LDH release)
Assay type: cell-based, human
Settings: 5 day HCV-infected Huh7-1 cultures
Experimental: Initially, 6×10^3 Huh7-1 cells are incubated overnight in each well of collagen-coated BioCoat 96-well plates (BD Biosciences, Bedford, Mass.) in 0.2 ml 10% medium composed of Dulbecco's modified Eagle's medium supplemented with 10% fetal bovine serum. Subsequently, at 2 day intervals, the cultures are replenished with fresh 0.2 ml 10% medium. After the cultures become confluent, they continue to be replenished at 2 day intervals with fresh 0.2 ml 10% medium that also includes 1% dimethyl sulfoxide (DMSO). After 20 days of these replenishments, the Huh7-1 cultures are incubated with fresh 1% medium (same as 10% medium except that the serum level is 1%) containing HCV at a multiplicity of infection (MOI) of 0.05 focus forming units (ffu)/cell. The HCV (JFH-1 wt Huh7) stock titer is 1.5×10^5 ffu/ml. The next day (day 1 post-infection) and 2 days later (day 3 post-infection) the media are replenished with fresh 1% medium containing the test compounds dissolved in DMSO. On the 5th day of treatment with the compounds, cell lysates are collected for RNA isolation and Real Time-quantitative Reverse Transcription Polymerase Chain Reaction (RT-qPCR) and culture media are collected for cytotoxicity analysis.
HCV Induced Cytotoxicity Test. To determine whether the compounds described herein are cytotoxic at the tested doses used, the Promega CytoTox 96 Non-Radioactive Cytotoxicity Assay kit (Promega, Madison, Wis.) is used. This kit measures lactate dehydrogenase (LDH) levels in the culture medium, which is released from cells due to plasma membrane integrity loss or necrosis. For this test, 50 uL samples of culture medium are collected from the same 5 day cultures used to examine the RNA levels shown previously.

[1] = concentration ranges of 2.5 to 20 μM

Row | SMILES | toxicity in the assay (LDH levels in the culture medium) (at 25 μM) | toxicity in the assay (LDH levels in the culture medium) [1]
1 | Cc1ccc2occ(CN3C[C@H]4CC[C@]5(NC(=O)c6ccccc6N5)[C@H]4C3)c(=O)c2c1 [Example 3] | limited toxicity | little to no toxicity
2 | O=C1N[C@]2(CC[C@@H]3CN(Cc4cc5c(cc4Cl)OCO5)C[C@@H]32)Nc2ccccc21 [Example 6] | limited toxicity | little to no toxicity
3 | O=C1N[C@]2(CC[C@@H]3CN(Cc4cnc(N5CCOCC5)nc4)C[C@@H]32)Nc2ccccc21 [Example 4] | – | little to no toxicity
